Common to all, as to assay type: functional, cell-based
The target in assay [1] is T1, C-C chemokine receptor type 5 (Homo sapiens, UniProt P51681). The assay is described as follows: Inhibition of MIP-1beta ligand of chemokine receptor 5 induced calcium signal in U-87-CCR5 cells by calcium mobilization assay. A general note: Calcium assays in cells follow changes in intracellular calcium, usually with a dye or a luminescent sensor.
Assay [2] has as its target T1, C-C chemokine receptor type 5. Description: Inhibition of MIP-1alpha ligand of chemokine receptor 5 induced calcium signal in U-87-CCR5 cells by calcium mobilization assay.
For assay [3] the target is unchanged. Description: Inhibition of RANTES co-receptor of chemokine receptor 5 induced calcium signal in U-87-CCR5 cells by calcium mobilization assay.
Assay [4] shares this target. The assay is described as follows: Inhibition of 50% of RANTES co-receptor of chemokine receptor 5 induced calcium signal in U-87-CCR5 cells by calcium mobilization assay.

T1 sequence (P51681 whole entry): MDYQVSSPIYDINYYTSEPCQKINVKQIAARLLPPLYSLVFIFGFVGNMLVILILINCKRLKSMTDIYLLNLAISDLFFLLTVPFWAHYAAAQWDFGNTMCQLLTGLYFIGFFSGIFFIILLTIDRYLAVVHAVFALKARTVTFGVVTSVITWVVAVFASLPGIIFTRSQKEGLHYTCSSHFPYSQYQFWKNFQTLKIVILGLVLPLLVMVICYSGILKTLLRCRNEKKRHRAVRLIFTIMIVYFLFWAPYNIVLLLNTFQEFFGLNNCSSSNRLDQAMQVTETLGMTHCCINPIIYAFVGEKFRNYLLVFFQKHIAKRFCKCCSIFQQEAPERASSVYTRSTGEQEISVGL

On to `CC(OC(=O)/C=C/c1ccc(O)cc1)C(=O)[C@H]1C[C@@H]1[C@H](O)[C@H]1CC=CC(=O)O1` (some centres undefined), for which the IC50 (as a rule, the concentration needed to halve the response being measured) in assay [1] is 7.2 µM; in assay [2], 10 µM; in assay [3], over 10 µM.
Taken in the same sequence, the figures for `COc1ccc(/C=C\C(=O)OC(C)C(=O)[C@H]2C[C@@H]2[C@H](O)[C@H]2CC=CC(=O)O2)cc1` (some centres undefined) were 6 µM, 8.8 µM and over 10 µM.
Turning to `COc1ccc(/C=C/C(=O)OC(C)C(=O)[C@H]2C[C@@H]2[C@H](O)[C@H]2CC=CC(=O)O2)cc1` (some centres undefined), the IC50 in assay [1] was 5.5 µM; in assay [4] it was 8.7 µM; in assay [2] it was over 10 µM.

These data come from ChEMBL document CHEMBL1137978, “Three new compounds from the plant Lippia alva as inhibitors of chemokine receptor 5 (CCR5)” (Bioorg Med Chem Lett, 2004).
